# Test system: CD31 (angiogenesis marker) in tumor tissues
# Test: CD31 immunohistochemistry of xenograft tumor tissues
# Assay type: in vivo, BALB/c nu/nu mice
# Settings: TY-011 treated group vs control group
# Text: Female BALB/c nu/nu mice (5–6 weeks, 16–18 g) were obtained from Sino-British SIPPR/BK Lab. Animal Ltd, Shanghai, China, with the certification number of 2008001638201. The animals were housed in specific pathogen-free (SPF) conditions at Key Laboratory of Brain Functional Genomics, Ministry of Education, and were acclimatized for a week prior to use. Human MGC-803 xenografts were established by subcutaneously inoculating 5 × 10^6 cells into nude mice. When the tumors reached a mean group size of 100 ~ 150 mm^3, the mice were randomized into control and treatment groups to receive treatment accordingly. TY-011 was orally administered at 3, 6 and 9 mg/kg once a day for 13 days. […] The tumor growth was recorded with the measurement of length (L) and width (W) by caliper every other day, and calculated as tumor volume (V) = L × W^2/2. Meanwhile, the body weights of mice were recorded. The tumor volume at day n was expressed as relative tumor volume (RTV) according to the following formula: RTV% = (TVn/TV0) ×100%, where TVn is the tumor volume at day n and TV0 is the tumor volume at day 0. The therapeutic effect of treatment was calculated with formula T/C (%) = mean RTV of the treated group/mean RTV of the control group × 100%. […] The tumor regression of individual mouse was defined as the tumor volume at the end was less than the tumor volume when treatment was initiated. […]
smiles,measurement,value
"CCc1cc2c(cn1)C(c1ccccc1Cl)=Nc1c(n[nH]c1C)N2 [TY-011, 9-(2-chloro-phenyl)-6-ephyl-1-methyl-2,4-dihydro-2,3,4,7,10-pentaaza-benzo[f]azulene]",CD31 staining in tumor tissues,much less than control group
